From patent publication US7491821B2, “Inhibitors of P2X3” (Roche Palo Alto LLC, priority 2005, dated 2009) come the findings set out here.

SMILES strings stand for the structures. Where a name gives a salt, the structure may show the parent alone.

One may read the melting point as the temperature, or range, at which the solid turns liquid. The molecule `CC(=O)N1CCN(C[C@H](C)NC(=O)c2cc3c(-c4ccccc4)nn(C)c3s2)CC1` (as salt: salt) [compound 94, (S)-1-methyl-3-phenyl-1H-thieno[2,3-c]pyrazole-5-carboxylic acid [2-(4-acetyl-piperazin-1-yl)-1-methyl-ethyl]-amide] gave a melting point of 133.5 to 140.1 °C. `CC(=O)N1CCN(C[C@@H](C)NC(=O)c2cc3c(-c4ccccc4)nn(C)c3s2)CC1` (as salt: salt) [compound 93, (R)-1-methyl-3-phenyl-1H-thieno[2,3-c]pyrazole-5-carboxylic acid [2-(4-acetyl-piperazin-1-yl)-1-methyl-ethyl]-amide] yielded a melting point of 133.9 to 139.9 °C.
